Experimental data taken from paper PMC6804253, “Predicting and Experimentally Validating Hot-Spot Residues at Protein–Protein Interfaces” (ACS Chemical Biology, 2019).
Substitutions are numbered along the chain they refer to. Read-outs that look alike come from different tables or passages of the source.

B1: 2PCC VA197A (protein, UniProt P00431 68-361, looked up, variant V197A)
Cytochrome c peroxidase, …: TTPLVHVASVEKGRSYEDFQKVYNAIALKLREDDEYDNYIGYGPVLVRLAWHTSGTWDKHDNTGGSYGGTYRFKKEFNDPSNAGLQNGFKFLEPIHKEFPWISSGDLFSLGGVTAVQEMQGPKIPWRCGRVDTPEDTTPDNGRLPDADKDADYVRTFFQRLNMNDREVVALMGAHALGKTHLKNSGYEGPWGAANNAFTNEFYLNLLNEDWKLEKNDANNEQWDSKSGYMMLPTDYSLIQDPKYLSIVKEYANDQDKFFKDFSKAFEKLLENGITFPKDAPSPFIFKTLEEQGL
B2: 1KTZ IB125A (protein, UniProt P37173 23-166, looked up, variant I125A)
extracellular domain: TIPPHVQKSVNNDMIVTDNNGAVKFPQLCKFCDVRFSTCDNQKSCMSNCSITSICEKPQEVCVAVWRKNDENITLETVCHDPKLPYHDFILEDAASPKCIMKEKKKPGETFFMCSCSSDECNDNAIFSEEYNTSNPDLLLVIFQ
modifications: extracellular domain
B3: 1JRH NI48A (protein, UniProt P15260 18-245, looked up, variant N48A)
extracellular domain: EMGTADLGPSSVPTPTNVTIESYNMNPIVYWEYQIMPQVPVFTVEVKAYGVKNSEWIDACINISHHYCNISDHVGDPSNSLWVRVKARVGQKESAYAKSEEFAVCRDGKIGPPKLDIRKEEKQIMIDIFHPSVFVNGDEQEVDYDPETTCYIRVYNVYVRMNGSEIQYKILTQKEDDCDEIQCQLAIPVSSLNSQYCVSAEGVLHVWGVTTEKSKEVCITIFNSSIKG
modifications: extracellular domain
B4: 1JRH SI54A (protein, UniProt P15260 18-245, looked up, variant S54A)
extracellular domain: B3 extracellular domain with A48N, S54A
modifications: extracellular domain
B5: 1JRH NI53A (protein, UniProt P15260 18-245, looked up, variant N53A)
extracellular domain: B3 extracellular domain with A48N, N53A
modifications: extracellular domain
B6: 1IAR TA6A (protein, UniProt P05112 25-153, looked up, variant T6A)
Interleukin-4: HKCDIALQEIIKTLNSLTEQKTLCTELTVTDIFAASKNTTEKETFCRAATVLRQFYSHHEKDTRCLGATAQQFHRHKQLIRFLKRLDRNLWGLAGLNSCPVKEANQSTLENFLERLKTIMREKYSKCSS
B7: 1IAR NA89A (protein, UniProt P05112 25-153, looked up, variant N89A)
Interleukin-4: B6 Interleukin-4 with A6T, N89A
B8: 1IAR SA16A (protein, UniProt P05112 25-153, looked up, variant S16A)
Interleukin-4: B6 Interleukin-4 with A6T, S16A
B9: 1IAR TA13A (protein, UniProt P05112 25-153, looked up, variant T13A)
Interleukin-4: B6 Interleukin-4 with A6T, T13A
B10: 1IAR QA8A (protein, UniProt P05112 25-153, looked up, variant Q8A)
Interleukin-4: B6 Interleukin-4 with A6T, Q8A
B11: 1IAR NA15A (protein, UniProt P05112 25-153, looked up, variant N15A)
Interleukin-4: B6 Interleukin-4 with A6T, N15A
B12: 1REW QC86A (protein, UniProt P36894 24-152, looked up, variant Q86A)
extracellular domain: QNLDSMLHGTGMKSDSDQKKSENGVTLAPEDTLPFLKCYCSGHCPDDAINNTCITNGHCFAIIEEDDQGETTLASGCMKYEGSDFACKDSPKAQLRRTIECCRTNLCNQYLQPTLPPVVIGPFFDGSIR
modifications: extracellular domain

What was measured:
[1] = tested on: PPIs of the SKEMPI data set (by PDBID); settings: ref SKEMPI, cited from earlier work; for sk_ddG_kJ: SKEMPI experimental ΔΔG of binding; for sk_ddG_kJ / sk_ddG_kJ (SKEMPI experimental ΔΔG, mutation to alanine) / sk_ddG_kJ (SKEMPI experimental ΔΔG): single mutation to alanine; for sk_class (class of SKEMPI experimental ΔΔG): class by ΔΔG threshold 4.184 kJ/mol; for sk_class: class of the SKEMPI experimental ΔΔG
[2] = tested on: PPIs of the SKEMPI data set (by PDBID); experiment: SKEMPI experimental ΔΔG, single mutations to alanine; type: binding; settings: ref SKEMPI; for sk_class (class of the SKEMPI experimental ΔΔG): class by ΔΔG threshold 4.184 kJ/mol
[3] = PPI given by PDBID, sheet sortedByGroup, r_group DERKH
[4] = complex given by PDBID, residue group in r_group
[5] = complex given by PDBID, residue group SQNT
[6] = sheet sortedByGroup, r_group FAMILYVW

Molecule | sk_ddG_kJ ([1]; PPI given by PDBID) [kJ] | sk_class [1] | also measured
1A4Y EB108A |  |  | sk_ddG_kJ ([1]; complex by PDBID): -1.34 kJ; sk_class ([2]; class of the SKEMPI experimental ΔΔG): Neutral (neutral (little effect) 4.184 kJ/mol < ΔΔG > −4.184 kJ/mol)
1A4Y HB8A |  |  | sk_ddG_kJ (SKEMPI experimental ΔΔG, mutation to alanine) [1, 3]: 3.77 kJ; sk_class (class of the SKEMPI experimental ΔΔG) [2]: Neutral (neutral (little effect) 4.184 kJ/mol < ΔΔG > −4.184 kJ/mol)
1A4Y HB13A |  |  | sk_ddG_kJ (SKEMPI experimental ΔΔG, mutation to alanine) [1, 3]: -1.42 kJ; sk_class (class of the SKEMPI experimental ΔΔG) [2]: Neutral (neutral (little effect) 4.184 kJ/mol < ΔΔG > −4.184 kJ/mol)
1A22 PA48A |  |  | sk_class (class of SKEMPI experimental ΔΔG) [1]: Neutral (neutral (little effect) 4.184 kJ/mol < ΔΔG > −4.184 kJ/mol); sk_ddG_kJ (SKEMPI experimental ΔΔG, mutation to alanine) [1, 4]: 1.67 kJ
1A22 PA59A |  |  | sk_class (class of SKEMPI experimental ΔΔG) [1]: Neutral (neutral (little effect) 4.184 kJ/mol < ΔΔG > −4.184 kJ/mol); sk_ddG_kJ (SKEMPI experimental ΔΔG, mutation to alanine) [1, 4]: 1.59 kJ
1A22 PA61A |  |  | sk_class (class of SKEMPI experimental ΔΔG) [1]: Positive (positive (a hot residue) ΔΔG ≥ 4.184 kJ/mol); sk_ddG_kJ (SKEMPI experimental ΔΔG, mutation to alanine) [1, 4]: 5.02 kJ
1DQJ DC101A |  |  | sk_ddG_kJ ([1]; complex by PDBID): 6.07 kJ
1DQJ KC96A |  |  | sk_ddG_kJ ([1]; complex by PDBID): 25.77 kJ
1DQJ KC97A |  |  | sk_ddG_kJ ([1]; complex by PDBID): 14.73 kJ
1DQJ LC75A |  |  | sk_ddG_kJ (SKEMPI experimental ΔΔG) ([1]; PPI given by PDBID, sheet sortedByGroup, r_group FAMILYVW): 6.07 kJ
1DQJ RC21A |  |  | sk_ddG_kJ ([1]; complex by PDBID): 4.90 kJ
1DQJ SC100A |  |  | sk_ddG_kJ (SKEMPI experimental ΔΔG) [1, 5]: 3.26 kJ
1DQJ TC89A |  |  | sk_ddG_kJ (SKEMPI experimental ΔΔG) [1, 5]: 3.51 kJ
1DQJ WC62A |  |  | sk_ddG_kJ (SKEMPI experimental ΔΔG) [1, 6]: 3.18 kJ
1DQJ WC63A |  |  | sk_ddG_kJ (SKEMPI experimental ΔΔG) [1, 6]: 5.65 kJ
1DQJ YC20A |  |  | sk_ddG_kJ (SKEMPI experimental ΔΔG) [1, 6]: 13.77 kJ
1GC1 NC30A | 0.71 | Neutral (neutral (little effect) 4.184 kJ/mol < ΔΔG > −4.184 kJ/mol) | 
1GC1 NC32A | 0.75 | Neutral (neutral (little effect) 4.184 kJ/mol < ΔΔG > −4.184 kJ/mol) | 
1GC1 NC73A | -0.46 | Neutral (neutral (little effect) 4.184 kJ/mol < ΔΔG > −4.184 kJ/mol) | 
1GC1 QC20A | -0.08 | Neutral (neutral (little effect) 4.184 kJ/mol < ΔΔG > −4.184 kJ/mol) | 
1GC1 QC33A | 0.46 | Neutral (neutral (little effect) 4.184 kJ/mol < ΔΔG > −4.184 kJ/mol) | 
1GC1 QC40A | -1.72 | Neutral (neutral (little effect) 4.184 kJ/mol < ΔΔG > −4.184 kJ/mol) | 
1GC1 QC64A | 1.84 | Neutral (neutral (little effect) 4.184 kJ/mol < ΔΔG > −4.184 kJ/mol) | 

Molecule | sk_ddG_kJ ([1]; PPI given by PDBID) [kJ] | sk_class [1] | also measured
1GC1 QC94A | -0.46 | Neutral (neutral (little effect) 4.184 kJ/mol < ΔΔG > −4.184 kJ/mol) | 
1GC1 SC23A | 1.21 | Neutral (neutral (little effect) 4.184 kJ/mol < ΔΔG > −4.184 kJ/mol) | 
1GC1 SC31A | 0.46 | Neutral (neutral (little effect) 4.184 kJ/mol < ΔΔG > −4.184 kJ/mol) | 
1GC1 SC60A | -0.38 | Neutral (neutral (little effect) 4.184 kJ/mol < ΔΔG > −4.184 kJ/mol) | 
1GC1 TC15A | 1.34 | Neutral (neutral (little effect) 4.184 kJ/mol < ΔΔG > −4.184 kJ/mol) | 
1GC1 TC17A | -0.54 | Neutral (neutral (little effect) 4.184 kJ/mol < ΔΔG > −4.184 kJ/mol) | 
1VFB IC124A |  |  | sk_class (class of SKEMPI experimental ΔΔG) [1]: Positive (positive (a hot residue) ΔΔG ≥ 4.184 kJ/mol)
1VFB LC129A |  |  | sk_class (class of SKEMPI experimental ΔΔG) [1]: Neutral (neutral (little effect) 4.184 kJ/mol < ΔΔG > −4.184 kJ/mol)
1VFB SC24A | 3.56 | Neutral (neutral (little effect) 4.184 kJ/mol < ΔΔG > −4.184 kJ/mol) | 
1VFB VC120A |  |  | sk_class (class of SKEMPI experimental ΔΔG) [1]: Neutral (neutral (little effect) 4.184 kJ/mol < ΔΔG > −4.184 kJ/mol)
1VFB YC23A |  |  | sk_class (class of SKEMPI experimental ΔΔG) [1]: Neutral (neutral (little effect) 4.184 kJ/mol < ΔΔG > −4.184 kJ/mol)
B1 |  |  | sk_class (class of SKEMPI experimental ΔΔG) [1]: Positive (positive (a hot residue) ΔΔG ≥ 4.184 kJ/mol); sk_ddG_kJ (SKEMPI experimental ΔΔG, mutation to alanine) [1, 4]: 8.74 kJ
B2 |  |  | sk_class (class of SKEMPI experimental ΔΔG) [1]: Neutral (neutral (little effect) 4.184 kJ/mol < ΔΔG > −4.184 kJ/mol); sk_ddG_kJ (SKEMPI experimental ΔΔG, mutation to alanine) [1, 4]: 2.26 kJ
B3 | 2.64 | Neutral (neutral (little effect) 4.184 kJ/mol < ΔΔG > −4.184 kJ/mol) | 
B4 | 1.92 | Neutral (neutral (little effect) 4.184 kJ/mol < ΔΔG > −4.184 kJ/mol) | 
B5 | 19.71 | Positive (positive (a hot residue) ΔΔG ≥ 4.184 kJ/mol) | 
B6 | -0.42 | Neutral (neutral (little effect) 4.184 kJ/mol < ΔΔG > −4.184 kJ/mol) | 
B7 | 6.53 | Positive (positive (a hot residue) ΔΔG ≥ 4.184 kJ/mol) | 
B8 | -0.75 | Neutral (neutral (little effect) 4.184 kJ/mol < ΔΔG > −4.184 kJ/mol) | 
B9 | 4.10 | Neutral (neutral (little effect) 4.184 kJ/mol < ΔΔG > −4.184 kJ/mol) | 
B10 | -0.08 | Neutral (neutral (little effect) 4.184 kJ/mol < ΔΔG > −4.184 kJ/mol) | 
B11 | -0.13 | Neutral (neutral (little effect) 4.184 kJ/mol < ΔΔG > −4.184 kJ/mol) | 
B12 | 11.13 | Positive (positive (a hot residue) ΔΔG ≥ 4.184 kJ/mol) | 
